The source of these data is PubChem BioAssay AID308 (DTP/NCI, 2004).

The test system of this assay is BDF1 mice, L1210 6-MP/6-TG resistant leukemia ip, survival T/C. The assay is described as follows: NCI In Vivo Anticancer Drug Screen. Data for tumor model L1210 Leukemia resistant to 6-MP and 6-Thioguanine; NSC 755, NSC 752 (intraperitoneal) in B6D2F1 (BDF1) mice. The note with it: endpoint: mean survival time, higher = longer survival. As for the experimental part: The antitumor activity of compounds was measured in mice bearing transplantable tumors. Survival or tumor size were measured and the results are expressed as the measurement made in the treated group (T) divided by the measurement made in the vehicle treated control group (C). The tumor model used in this assay is L1210 Leukemia resistant to 6-MP and 6-Thioguanine; NSC 755, NSC 752 (intraperitoneal) in B6D2F1 (BDF1) mice

[1] abbreviates: dose: 25.0 mg/kg/injection, schedule: Q01DX Z (ip), vehicle: carboxymethylcellulose (CMC).
[2] abbreviates: dose: 1.5 mg/kg/injection, schedule: Q01DX Z (ip), vehicle: carboxymethylcellulose (CMC).
[3] abbreviates: dose: 3.0 mg/kg/injection, schedule: Q01DX Z (ip), vehicle: carboxymethylcellulose (CMC).
The mark [4] stands for this setting: dose: 4.0 mg/kg/injection, schedule: Q01DX Z (ip), vehicle: carboxymethylcellulose (CMC).
[5] abbreviates: dose: 50.0 mg/kg/injection, schedule: Q01DX Z (ip), vehicle: carboxymethylcellulose (CMC).
Setting [6] is: dose: 0.5 mg/kg/injection, schedule: Q01DX Z (ip), vehicle: saline.

Where “and” joins values, the source holds several entries; their conditions need not be identical. Equal values may be shown once. Toxic doses and inconclusive results are not listed.

With `CCCNc1ncnc2[nH]ncc12`, for the setting “dose: 25.0 mg/kg/injection, schedule: Q01DX Z (ip), vehicle: saline”, the T/C was 111 % of control.
For the compound `Nc1nc(SCc2ccccc2)c2[nH]cnc2n1`, the T/C by setting is: (dose: 5.0 mg/kg/injection, schedule: Q01DX Z (ip), vehicle: carboxymethylcellulose (CMC)) 88 % of control; (dose: 10.0 mg/kg/injection, schedule: Q01DX Z (ip), vehicle: carboxymethylcellulose (CMC)) 91 % of control; under setting [1], 86 % of control; (dose: 37.5 mg/kg/injection, schedule: Q01DX Z (ip), vehicle: carboxymethylcellulose (CMC)) 95 % of control.
In the case of `C[C@@H]1C[C@H]2CC[C@H](O2)[C@H](C)C(=O)O[C@@H](C)C[C@@H]2CC[C@@H](O2)[C@@H](C)C(=O)O[C@H](C)C[C@H]2CC[C@H](O2)[C@H](C)C(=O)O[C@@H](C)C[C@@H]2CC[C@@H](O2)[C@@H](C)C(=O)O1`, the T/C is 101 % of control (dose: 10.0 mg/kg/injection, schedule: Q01DX Z (ip), vehicle: other); 101 % of control (dose: 15.0 mg/kg/injection, schedule: Q01DX Z (ip), vehicle: other); 104 % of control (dose: 20.0 mg/kg/injection, schedule: Q01DX Z (ip), vehicle: other); 94 % of control (dose: 30.0 mg/kg/injection, schedule: Q01DX Z (ip), vehicle: other); 100 % of control (dose: 45.0 mg/kg/injection, schedule: Q01DX Z (ip), vehicle: carboxymethylcellulose (CMC)); 93 % of control (dose: 90.0 mg/kg/injection, schedule: Q01DX Z (ip), vehicle: carboxymethylcellulose (CMC)). The T/C is 96 % of control (dose: 180.0 mg/kg/injection, schedule: Q01DX Z (ip), vehicle: carboxymethylcellulose (CMC)) and 95 % of control (dose: 360.0 mg/kg/injection, schedule: Q01DX Z (ip), vehicle: carboxymethylcellulose (CMC)).
With `O=C(Nc1ccc(C2=NCCCN2)cc1)c1ccc(NC(=O)c2ccc(C3=NCCCN3)cc2)cc1`, the T/C (dose: 0.75 mg/kg/injection, schedule: Q01DX Z (ip), vehicle: carboxymethylcellulose (CMC)) was 113 % of control; the T/C under setting [2] is 116 % of control; the T/C under setting [3] was 272 % of control; the T/C under setting [4] was 235 % of control; the T/C (dose: 6.0 mg/kg/injection, schedule: Q01DX Z (ip), vehicle: carboxymethylcellulose (CMC)) was 185 % of control; the T/C (dose: 16.0 mg/kg/injection, schedule: Q01DX Z (ip), vehicle: carboxymethylcellulose (CMC)) was 106 % of control.
For `Nc1nc(=S)c2ncn(C3OC(CO)CC3O)c2[nH]1` (stereo unspecified), the T/C by setting is: (dose: 1.5 mg/kg/injection, schedule: Q01DX009 (ip), vehicle: other) 99 % of control; (dose: 3.0 mg/kg/injection, schedule: Q01DX009 (ip), vehicle: other) 99 % of control; (dose: 6.0 mg/kg/injection, schedule: Q01DX009 (ip), vehicle: other) 107 % of control; (dose: 12.5 mg/kg/injection, schedule: Q01DX015 (ip), vehicle: other) 87 % of control.
With `c1ccc(CNc2ncnc3[nH]ncc23)cc1`, the T/C runs as follows: under setting [2], 96 % of control; under setting [3], 93 % of control; (dose: 6.25 mg/kg/injection, schedule: Q01DX Z (ip), vehicle: carboxymethylcellulose (CMC)) 101 % of control; (dose: 12.5 mg/kg/injection, schedule: Q01DX Z (ip), vehicle: carboxymethylcellulose (CMC)) 88 % of control; under setting [1], 92 % of control; under setting [5], 93 % of control.
Take `CSc1ncnc2c1ncn2C1CC(O)C(CO)O1` (stereo unspecified): the T/C is, setting by setting: (dose: 32.0 mg/kg/injection, schedule: Q## X032 (ip), vehicle: saline) 105 % of control; (dose: 48.0 mg/kg/injection, schedule: Q## X032 (ip), vehicle: saline) 96 % of control; (dose: 72.0 mg/kg/injection, schedule: Q## X032 (ip), vehicle: saline) 107 % of control.
Turning to `Oc1cc(CN(CCCl)CCCl)c(O)cc1CN(CCCl)CCCl`, the T/C is, setting by setting: under setting [6], 173 % of control; (dose: 2.0 mg/kg/injection, schedule: Q01DX Z (ip), vehicle: carboxymethylcellulose (CMC)) 153 % of control and 184 % of control; under setting [4], 102 % of control and 108 % of control.
Consider `CCCSc1ncnc2nc[nH]c12`, for which the T/C was 98 % of control (dose: 43.5 mg/kg/injection, schedule: Q01DX Z (ip), vehicle: other); 105 % of control (dose: 87.0 mg/kg/injection, schedule: Q01DX Z (ip), vehicle: other); 91 % of control (dose: 175.0 mg/kg/injection, schedule: Q01DX Z (ip), vehicle: other).
Regarding `CC(=O)Nc1ccc2nc3ccc(NC(C)=O)cc3[n+](-c3ccccc3)c2c1`, the T/C was 95 % of control (dose: 1.25 mg/kg/injection, schedule: Q01DX Z (ip), vehicle: carboxymethylcellulose (CMC)); 103 % of control (dose: 2.5 mg/kg/injection, schedule: Q01DX Z (ip), vehicle: carboxymethylcellulose (CMC)); 154 % of control (dose: 7.5 mg/kg/injection, schedule: Q01DX Z (ip), vehicle: carboxymethylcellulose (CMC)); 202 % of control under setting [1]; 176 % of control under setting [5]; 180 % of control (dose: 75.0 mg/kg/injection, schedule: Q01DX Z (ip), vehicle: carboxymethylcellulose (CMC)). The T/C (dose: 100.0 mg/kg/injection, schedule: Q01DX Z (ip), vehicle: carboxymethylcellulose (CMC)) was 121 % of control; the T/C (dose: 200.0 mg/kg/injection, schedule: Q01DX Z (ip), vehicle: carboxymethylcellulose (CMC)) was 150 % of control; the T/C (dose: 300.0 mg/kg/injection, schedule: Q01DX Z (ip), vehicle: carboxymethylcellulose (CMC)) was 122 % of control.
Turning to `N=C(N)c1ccc(Nc2ccc(C(=N)N)cc2)cc1`, the T/C is 112 % of control (dose: 2.0 mg/kg/injection, schedule: Q01DX Z (ip), vehicle: water); 102 % of control (dose: 4.0 mg/kg/injection, schedule: Q01DX Z (ip), vehicle: water); 104 % of control (dose: 6.0 mg/kg/injection, schedule: Q01DX Z (ip), vehicle: water); 106 % of control (dose: 8.0 mg/kg/injection, schedule: Q01DX Z (ip), vehicle: water); 104 % of control (dose: 9.37 mg/kg/injection, schedule: Q01DX Z (ip), vehicle: water); 100 % of control (dose: 18.75 mg/kg/injection, schedule: Q01DX Z (ip), vehicle: water).
Consider `C[N+](C)(C)c1ncnc2nc[nH]c12`, for which the T/C is, setting by setting: (dose: 11.25 mg/kg/injection, schedule: Q01DX Z (ip), vehicle: saline) 101 % of control; (dose: 22.5 mg/kg/injection, schedule: Q01DX Z (ip), vehicle: saline) 100 % of control; (dose: 45.0 mg/kg/injection, schedule: Q01DX Z (ip), vehicle: saline) 102 % of control; (dose: 50.0 mg/kg/injection, schedule: Q01DX Z (ip), vehicle: saline) 105 % of control; (dose: 90.0 mg/kg/injection, schedule: Q01DX Z (ip), vehicle: saline) 94 % of control; (dose: 100.0 mg/kg/injection, schedule: Q01DX Z (ip), vehicle: saline) 99 % of control.
On to `Nc1nc(F)nc2c1ncn2C1OC(CO)C(O)C1O` (stereo unspecified), for which the T/C is 109 % of control (dose: 0.06 mg/kg/injection, schedule: Q01DX Z (ip), vehicle: saline); 104 % of control (dose: 0.12 mg/kg/injection, schedule: Q01DX Z (ip), vehicle: saline); 106 % of control (dose: 0.25 mg/kg/injection, schedule: Q01DX Z (ip), vehicle: saline); 101 % of control under setting [6]; 119 % of control (dose: 0.75 mg/kg/injection, schedule: Q01DX Z (ip), vehicle: saline); 107 % of control (dose: 1.5 mg/kg/injection, schedule: Q01DX Z (ip), vehicle: saline). Also, the T/C was 115 % of control (dose: 3.0 mg/kg/injection, schedule: Q01DX Z (ip), vehicle: saline) and 90 % of control (dose: 6.0 mg/kg/injection, schedule: Q01DX Z (ip), vehicle: saline).
In the case of `CN(N=O)C(=O)NCCSc1ncnc2nc[nH]c12`, the T/C (dose: 88.0 mg/kg/injection, schedule: Q01DX015 (ip), vehicle: other) was 104 % of control; the T/C (dose: 132.0 mg/kg/injection, schedule: Q01DX015 (ip), vehicle: other) was 108 % of control; the T/C (dose: 200.0 mg/kg/injection, schedule: Q01DX015 (ip), vehicle: other) is 108 % of control; the T/C (dose: 300.0 mg/kg/injection, schedule: Q01DX015 (ip), vehicle: other) is 102 % of control.
